Assay [1] has as its target MASP-2 (CCP1-CCP2-SP) (Homo sapiens (Human), UniProt O00187). The assay is described as follows: Enzymatic assay for MASP-2 (fluorogenic substrate). The format is biochemical. The conditions noted are these: for MASP-2 vs. thrombin selectivity: MASP-2 inhibition versus thrombin.
For assay [2], the system named is lectin pathway. The assay is described as follows: Lectin pathway activation assay in 1% human serum (C3 deposition on mannan, ELISA). It is filed as biochemical.
Assay [3] deals with human α-thrombin (Homo sapiens (Human), UniProt P00734). The assay is described as follows: Enzymatic assay for thrombin (Boc-VPR-AMC). The format is biochemical.
Assay [4] addresses T1, mMASP-2 (Mus musculus (Mouse), UniProt Q91WP0). The assay is described as follows: Enzymatic assay for mMASP-2 (Ki). It is filed as biochemical.
Assay [5] concerns the target T1, mMASP-2. The assay is described as follows: Enzymatic assay for mMASP-2 (Ki). It is filed as biochemical. The source holds these as a separate data set.
Assay [6] has as its system COVID-19 patients. The conditions noted are these: cited from earlier work; for 28-day mortality: […] with usual care.
The mark [7] stands for this setting: Thrombin Ki, human α-thrombin, Boc-VPR-AMC.
[8] abbreviates: human α-thrombin, Boc-VPR-AMC, read-out: Thrombin Ki.
[9] abbreviates: oxygen support without invasive mechanical ventilation.

We go through 27 compounds from patent US12351648B2, “Methods of inhibiting MASP-2 for the treatment and/or prevention of coronavirus-induced acute respiratory distress syndrome” (priority 2020, dated 2025).

SMILES strings stand for the structures. Read-outs that look alike come from different tables or passages of the source. Non-standard residues stand in square brackets, D forms with d. Residues, ends and D or L forms follow the SMILES beside them. *: point of attachment. dChg = N[C@@H](C(=O)O)C1CCCCC1; Agmatine = N=C(N)NCCCCN*; Aze = O=C(O)[C@@H]1CCN1 Some results are limits rather than exact numbers.

T1 sequence (Q91WP0 20-685): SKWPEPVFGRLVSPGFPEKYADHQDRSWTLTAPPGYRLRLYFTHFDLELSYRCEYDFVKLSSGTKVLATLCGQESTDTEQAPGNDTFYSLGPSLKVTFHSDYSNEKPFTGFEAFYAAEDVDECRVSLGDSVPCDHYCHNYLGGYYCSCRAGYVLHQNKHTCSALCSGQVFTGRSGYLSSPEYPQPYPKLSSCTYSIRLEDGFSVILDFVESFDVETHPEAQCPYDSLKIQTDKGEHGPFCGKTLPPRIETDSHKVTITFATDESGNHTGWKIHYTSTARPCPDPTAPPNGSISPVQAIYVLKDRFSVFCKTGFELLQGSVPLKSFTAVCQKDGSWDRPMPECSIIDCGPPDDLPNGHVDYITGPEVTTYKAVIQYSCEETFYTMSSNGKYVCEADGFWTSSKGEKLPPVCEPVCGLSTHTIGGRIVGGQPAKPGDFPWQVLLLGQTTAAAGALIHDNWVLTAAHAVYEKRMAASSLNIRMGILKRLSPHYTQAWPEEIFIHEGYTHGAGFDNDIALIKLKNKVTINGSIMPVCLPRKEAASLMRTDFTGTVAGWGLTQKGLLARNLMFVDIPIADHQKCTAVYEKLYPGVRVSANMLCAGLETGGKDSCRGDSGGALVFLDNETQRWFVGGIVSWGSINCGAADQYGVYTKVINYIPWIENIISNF
Chain of MASP-2 (CCP1-CCP2-SP) (O00187 287-686): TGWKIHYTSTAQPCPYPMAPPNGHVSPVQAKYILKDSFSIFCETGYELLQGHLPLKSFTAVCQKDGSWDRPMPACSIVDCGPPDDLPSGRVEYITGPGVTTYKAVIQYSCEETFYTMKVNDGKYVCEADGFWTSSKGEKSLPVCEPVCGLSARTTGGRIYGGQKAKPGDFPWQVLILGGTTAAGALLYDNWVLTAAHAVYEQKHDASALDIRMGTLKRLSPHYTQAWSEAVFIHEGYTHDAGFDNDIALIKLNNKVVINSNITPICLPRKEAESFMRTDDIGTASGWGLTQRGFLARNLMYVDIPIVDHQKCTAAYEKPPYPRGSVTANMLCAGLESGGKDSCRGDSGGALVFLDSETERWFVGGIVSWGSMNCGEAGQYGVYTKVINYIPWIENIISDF

As to `N=C(N)c1ccc(CNC(=O)[C@@H]2CCCN2C(=O)[C@H](N)C2CCCCC2)cc1` [Compound 1027], the “MASP-2 vs. thrombin selectivity” value in assay [1] is reported as “— (less than 1.0-fold)”. For the compound `Cc1nc(N)ccc1CNC(=O)[C@H](C)NC(=O)[C@H]1C[C@H](Cc2ccc3ccccc3c2)CN1` [Compound 1338], the “MASP-2 vs. thrombin selectivity” value in assay [1] is “*** (≥25 to <100-fold)”. Consider `N=C(N)c1ccc(CNC(=O)Cn2c(=O)n(Cc3ccccc3)c(=O)c3ccc(C(=O)NC4CCCCC4)cc32)cc1` [Compound 2021], for which the IC50 in assay [2] (read-out: Lectin Ki (Lectin Pathway Inhibition, IC50)) was 5000 to 50000 nM.

For the compound `CCCCOC(=O)NC(=N)c1ccc(CNC(=O)[C@H](C)NC(=O)[C@H]2C[C@H](c3ccccc3)CN2)cc1` [Compound 1260], the Ki is 2.5 to 10 µM in assay [1] (MASP-2 Ki (μM)) and over 25 µM in assay [3] (Thrombin Ki (μM)). Take `C[C@H](NC(=O)[C@H]1CCc2ccccc2N1)C(=O)NCc1ccc(C(=N)N)cc1` [Compound 1215]: the inhibition constant (Ki) in assay [4] was under 25000 nM. In the case of `C[C@H](NC(=O)[C@H](N)CCc1ccccc1)C(=O)NCc1ccc2nc(N)[nH]c2c1` [Compound 1040], the “MASP-2 vs. thrombin selectivity” value in assay [1] is “**** (>100-fold)”. For the same compound, the Ki in assay [1] (read-out: MASP-2 Ki) is under 0.5 µM; in assay [3] (setting [7]) it was over 25 µM; in assay [4], under 500 nM. Further, in assay [2] (read-out: Lectin Pathway IC50), the IC50 lay in the range of 500 to 5000 nM. `N=C(N)NCCCCNC(=O)[C@@H]1CCN1C(=O)[C@H](N)C1CCCCC1` [Compound 1006] (H-[dChg]-[Aze]-Agmatine): the “MASP-2 vs. thrombin selectivity” value in assay [1] is listed as “— (less than 1.0-fold)”. `C[C@H](NC(=O)[C@H]1C[C@H](Cc2cccc3ccccc23)CN1)C(=O)NCc1cc(Cl)ccc1-n1cnnn1` [Compound 1414]: in assay [1], the “MASP-2 vs. thrombin selectivity” value is “— (<1.0-fold)”. `Cc1nc(N)ccc1CNC(=O)[C@H](C)NC(=O)[C@H]1C[C@H](c2cccc(-c3ccccc3)c2)CN1` [Compound 1360]: in assay [2] (read-out: Lectin Pathway IC50), the IC50 was 50 to 500 nM. For the same compound, the Ki was over 25 µM in assay [3] (Thrombin Ki (μM)) and under 500 nM in assay [5].

Regarding `C[C@H](NC(=O)[C@H](N)CCc1ccc(F)cc1)C(=O)NCc1ccc(C(=N)N)cc1` [Compound 1047], the Ki in assay [3] (setting [8]) is under 2.5 µM. Take `C[C@H](NC(=O)[C@H]1C[C@H](Cc2ccccc2)CN1)C(=O)NCc1cnc2[nH]cc(Cl)c2c1` [Compound 1334]: in assay [1], the “MASP-2 vs. thrombin selectivity” value is “— (<1.0-fold)”.

In turn, `Cc1nc(N)ccc1CNC(=O)[C@H](C)NC(=O)[C@H]1CC(Cc2ccc(F)cc2)(Cc2ccc(F)cc2)CN1` [Compound 1480] yielded an inhibitory constant (Ki) in assay [5] of under 500 nM.

Take `C[C@H](NC(=O)[C@@H](CCc1ccccc1)NCc1cc2ccccc2[nH]1)C(=O)NCc1ccc(C(=N)N)cc1` [Compound 1143]: the “MASP-2 vs. thrombin selectivity” value in assay [1] is listed as “— (less than 1.0-fold)”. For the same compound, the values for the Ki in assay [1] (read-out: MASP-2 Ki), in assay [3] (setting [8]) and in assay [4] were under 0.5 µM, under 0.5 µM and under 500 nM, respectively. `C[C@H](NC(=O)[C@H](N)CCc1ccccc1)C(=O)NCc1cc(Cl)ccc1-n1cnnn1` [Compound 1325]: the “MASP-2 vs. thrombin selectivity” value in assay [1] is recorded as “— (<1.0-fold)”. Consider `C[C@H](NC(=O)[C@@H](CCc1ccccc1)NCc1ccc(O)cc1)C(=O)NCc1ccc(C(=N)N)cc1` [Compound 1140], for which the “MASP-2 vs. thrombin selectivity” value in assay [1] was “— (less than 1.0-fold)”.

Take `C[C@H](NC(=O)C1CC(c2ccccc2)CCN1)C(=O)NCc1ccc(N)nc1` (stereo partly drawn) [Compound 1025]: the IC50 in assay [2] (read-out: Lectin Pathway IC50) fell in the range of 500 to 5000 nM. Besides, the Ki in assay [3] (setting [7]) is over 25 µM. As for `C[C@H](NC(=O)[C@@H](CCc1ccccc1)NC1CCCCC1)C(=O)NCc1ccc(C(=N)N)cc1` [Compound 1130], the “MASP-2 vs. thrombin selectivity” value in assay [1] is recorded as “— (less than 1.0-fold)”.

`Cc1nc(N)ccc1CNC(=O)[C@H](C)NC(=O)[C@H]1C[C@@H](c2ccccc2)CCN1CC(=O)O` [Compound 1398]: the Ki in assay [5] was under 500 nM. With `CC[C@H](NC(=O)[C@H](N)CCc1ccccc1)C(=O)NCc1ccc(C(=N)N)cc1` [Compound 1289], the “MASP-2 vs. thrombin selectivity” value in assay [1] was “— (<1.0-fold)”. For the compound `COC(=O)CCCCCN[C@H](CCc1ccccc1)C(=O)N[C@@H](C)C(=O)NCc1ccc(C(=N)N)cc1` [Compound 1142], in assay [1], the “MASP-2 vs. thrombin selectivity” value is on record as “* (1.0 to 5.0-fold)”. In addition, the Ki in assay [1] (read-out: MASP-2 Ki) and in assay [3] (setting [8]) was under 0.5 µM each time. Regarding `CCOC(=O)COc1ccc(Cl)cc1CNC(=O)[C@H](C)NC(=O)[C@H](N)CCc1ccccc1` [Compound 1229], the Ki in assay [3] (setting [8]) is under 10 µM. Turning to `C[C@H](NC(=O)[C@H](N)CCc1ccccc1)C(=O)NCc1ccc(C(=N)N)cc1` [Compound 1218], in assay [1], the “MASP-2 vs. thrombin selectivity” value is “— (less than 1.0-fold)”. As for `Cc1nc(N)ccc1CNC(=O)[C@@H](C)NC(=O)[C@H]1C[C@H](c2cccc(-c3ccccc3)c2)CN1` [Compound 1359], the figures for the Ki in assay [3] (Thrombin Ki (μM)) and in assay [5] were over 25 µM and 10000 to 25000 nM, respectively. As to `C[C@H](NC(=O)C1CC(c2ccccc2)CCN1)C(=O)NCc1ccc(C(=N)N)cc1` (stereo partly drawn) [Compound 1065], the half-maximal inhibitory concentration (IC50) in assay [2] (read-out: Lectin Pathway IC50) was under 50 nM. This compound came in with a Ki in assay [4] of under 500 nM. Regarding `N=C(N)c1ccc2[nH]c(Cc3nc4ccccc4[nH]3)nc2c1` [Compound 2015], the Ki in assay [1] (MASP-2 Ki (μM), −Zn) is under 10 µM.

Turning to `C[C@@H]1C[C@H]2[C@@H]3CCC4=CC(=O)C=C[C@]4(C)[C@@]3(F)[C@@H](O)C[C@]2(C)[C@@]1(O)C(=O)CO` [dexamethasone], the results for the 28-day mortality in assay [6] (invasive mechanical ventilation), in assay [6] (no respiratory support at randomization) and in assay [6] (setting [9]) were 29.0%, 17.0% and 21.5%, respectively. For the same compound, the “Reduction of 28-day mortality” value in assay [6] (setting [9]) was 14%; in assay [6] (patients on invasive mechanical ventilation), 28.7%. For the compound `C[C@H](NC(=O)[C@@H](CCc1ccccc1)NCc1ccc(F)cc1)C(=O)NCc1ccc(C(=N)N)cc1` [Compound 1141], the “MASP-2 vs. thrombin selectivity” value in assay [1] is recorded as “— (less than 1.0-fold)”. The Ki in assay [1] (read-out: MASP-2 Ki) and in assay [3] (setting [8]) was under 0.5 µM throughout.
